Columns and labels:
D(2) dopamine receptor = D(2) dopamine receptor (Rattus norvegicus, UniProt P61169); experiment: Inhibition of 0.1 nM of [125I]- (S)-N-(1-Ethyl-pyrrolidin-2-ylmethyl)-5-iodo-2-methoxy-benzamide binding in striatal homogenates of rat brain; format: tissue-based
Rattus norvegicus [1] = experiment: Regional uptake of [125I]- (S)-N-(1-Ethyl-pyrrolidin-2-ylmethyl)-5-iodo-2-methoxy-benzamide in rat frontal cortex 60 min after intravenous administration; format: functional, organism-based
Rattus norvegicus [2] = experiment: Regional uptake of [125I]- (S)-N-(1-Ethyl-pyrrolidin-2-ylmethyl)-5-iodo-2-methoxy-benzamide in rat striatum 60 min after intravenous administration; format: functional, organism-based
Rattus norvegicus [3] = experiment: Regional uptake of [125I]- (S)-N-(1-Ethyl-pyrrolidin-2-ylmethyl)-5-iodo-2-methoxy-benzamide in rat cerebellum 60 min after intravenous administration; format: functional, organism-based
[4] = Ratio of uptake of [125I]- (S)-N-(1-Ethyl-pyrrolidin-2-ylmethyl)-5-iodo-2-methoxy-benzamide in striatum:cerebellum; 7.2:1; format: functional
[5] = Ratio of uptake of [125I]- (S)-N-(1-Ethyl-pyrrolidin-2-ylmethyl)-5-iodo-2-methoxy-benzamide in striatum:striatum; 1.0:1; format: functional
[6] = Ratio of uptake of [125I]- (S)-N-(1-Ethyl-pyrrolidin-2-ylmethyl)-5-iodo-2-methoxy-benzamide in striatum:frontal cortex; 4.7:1; format: functional

Chain of D(2) dopamine receptor (P61169 whole entry): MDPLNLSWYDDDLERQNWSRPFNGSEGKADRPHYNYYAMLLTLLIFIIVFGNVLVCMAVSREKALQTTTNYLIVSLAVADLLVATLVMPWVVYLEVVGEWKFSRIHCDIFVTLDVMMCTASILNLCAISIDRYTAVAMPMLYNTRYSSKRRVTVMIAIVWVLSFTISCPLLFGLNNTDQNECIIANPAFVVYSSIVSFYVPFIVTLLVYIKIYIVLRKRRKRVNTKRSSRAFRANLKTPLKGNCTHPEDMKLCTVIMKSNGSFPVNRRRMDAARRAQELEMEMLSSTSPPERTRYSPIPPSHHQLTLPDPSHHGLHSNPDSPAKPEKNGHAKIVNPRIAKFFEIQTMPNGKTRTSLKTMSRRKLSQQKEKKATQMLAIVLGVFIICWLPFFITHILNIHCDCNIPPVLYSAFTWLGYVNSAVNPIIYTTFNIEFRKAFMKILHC

| IC50 (D(2) dopamine receptor) [nM] | Structure (SMILES) | Radioactivity (Rattus norvegicus [1]) [nCi g-1] | Radioactivity (Rattus norvegicus [2]) [nCi g-1] | Radioactivity (Rattus norvegicus [3]) [nCi g-1] | Ratio [4] | Ratio [5] | Ratio [6] |
| --- | --- | --- | --- | --- | --- | --- | --- |
| 1.5 | CCN1CCC[C@H]1CNC(=O)c1cc(I)ccc1OC [IODOPRIDE] | – | – | – | – | – | – |
| 113 | CCN1CCC[C@@H]1CNC(=O)c1cc(I)ccc1OC | 11.9 | 56.2 | 7.8 | 7.2 | 1 | 4.7 |
